Laboratory results taken from ChEMBL document CHEMBL1201862, “PubChem BioAssay data set” (2004).
Active and inactive are the calls of the source.

How the values were obtained:
[1] = molecular target: Peroxisome proliferator-activated receptor gamma/Nuclear receptor coactivator 1 (Homo sapiens, UniProt P37231); assay: (§1) TR-FRET dose response biochemical High Throughput Screening assay for agonists of the steroid receptor coactivator 1 (SRC-1) recruitment by the peroxisome proliferator-activated receptor gamma (PPAR gamma): non-selective agonists. [Related pubchem assays (depositor defined):AID1300, AID1808, AID504735, AID631]; format: protein assay
[2] = molecular target: Peroxisome proliferator-activated receptor gamma/Nuclear receptor coactivator 3 (Homo sapiens, UniProt P37231); assay: as §1, with “3 (SRC-3)” for “1 (SRC-1)”, “assays: 1301 (Confirmation screen.), 1048 (Primary screen.)]” for “assays (depositor defined):AID1300, AID1808, AID504735, AID631]”; format: functional
[3] = molecular target: Peroxisome proliferator-activated receptor gamma/Nuclear receptor coactivator 2 (Homo sapiens, UniProt P37231); assay: TR-FRET dose response biochemical High Throughput Screening assay for agonists of the steroid receptor coactivator 2 (SRC-2) recruitment by the peroxisome proliferator-activated receptor gamma (PPAR gamma): non-selective agonists. [Related pubchem assays: 1297, 1032 ]; format: functional
[4] = molecular target: T1, Replicative DNA helicase DnaB (Mycobacterium tuberculosis, UniProt P9WMR3); assay: DnaB intein splicing inhibitors, dose response, biochemical, cell-free fluorescence (AID 449749); format: functional
T1 sequence (P9WMR3 whole entry): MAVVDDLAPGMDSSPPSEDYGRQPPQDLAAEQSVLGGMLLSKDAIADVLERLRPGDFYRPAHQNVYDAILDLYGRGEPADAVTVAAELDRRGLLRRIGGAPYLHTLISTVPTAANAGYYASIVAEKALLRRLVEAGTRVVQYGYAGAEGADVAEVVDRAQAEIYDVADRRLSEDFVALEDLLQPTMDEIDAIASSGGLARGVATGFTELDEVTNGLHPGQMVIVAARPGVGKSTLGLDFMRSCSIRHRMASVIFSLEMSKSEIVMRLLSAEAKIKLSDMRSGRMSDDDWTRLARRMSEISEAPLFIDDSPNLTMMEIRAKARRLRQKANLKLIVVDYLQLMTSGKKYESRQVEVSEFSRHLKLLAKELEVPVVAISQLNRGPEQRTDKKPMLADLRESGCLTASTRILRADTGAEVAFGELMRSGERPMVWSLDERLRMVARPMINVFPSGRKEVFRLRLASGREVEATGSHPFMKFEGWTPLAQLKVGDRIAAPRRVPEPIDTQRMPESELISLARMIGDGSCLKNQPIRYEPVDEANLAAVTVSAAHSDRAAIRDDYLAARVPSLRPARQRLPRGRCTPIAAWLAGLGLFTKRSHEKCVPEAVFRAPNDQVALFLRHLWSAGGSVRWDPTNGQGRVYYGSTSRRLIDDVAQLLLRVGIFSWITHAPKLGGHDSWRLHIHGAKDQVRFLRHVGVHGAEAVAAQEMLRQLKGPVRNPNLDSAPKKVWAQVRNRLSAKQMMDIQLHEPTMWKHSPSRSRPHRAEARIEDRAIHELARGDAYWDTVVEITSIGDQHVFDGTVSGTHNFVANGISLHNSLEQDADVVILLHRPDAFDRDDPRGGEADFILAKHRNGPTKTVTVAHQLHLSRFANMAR

Protein RecA = molecular target: T2, Protein RecA (Mycobacterium tuberculosis, UniProt P9WHJ3); assay: Fluorescence Cell-Free Homogeneous Dose Retest to Identify Inhibitors of RecA-Intein Splicing Activity. [Related pubchem assays (depositor defined):AID2097, AID2223, AID489010, AID492950]; format: functional
T2 sequence (P9WHJ3 whole entry): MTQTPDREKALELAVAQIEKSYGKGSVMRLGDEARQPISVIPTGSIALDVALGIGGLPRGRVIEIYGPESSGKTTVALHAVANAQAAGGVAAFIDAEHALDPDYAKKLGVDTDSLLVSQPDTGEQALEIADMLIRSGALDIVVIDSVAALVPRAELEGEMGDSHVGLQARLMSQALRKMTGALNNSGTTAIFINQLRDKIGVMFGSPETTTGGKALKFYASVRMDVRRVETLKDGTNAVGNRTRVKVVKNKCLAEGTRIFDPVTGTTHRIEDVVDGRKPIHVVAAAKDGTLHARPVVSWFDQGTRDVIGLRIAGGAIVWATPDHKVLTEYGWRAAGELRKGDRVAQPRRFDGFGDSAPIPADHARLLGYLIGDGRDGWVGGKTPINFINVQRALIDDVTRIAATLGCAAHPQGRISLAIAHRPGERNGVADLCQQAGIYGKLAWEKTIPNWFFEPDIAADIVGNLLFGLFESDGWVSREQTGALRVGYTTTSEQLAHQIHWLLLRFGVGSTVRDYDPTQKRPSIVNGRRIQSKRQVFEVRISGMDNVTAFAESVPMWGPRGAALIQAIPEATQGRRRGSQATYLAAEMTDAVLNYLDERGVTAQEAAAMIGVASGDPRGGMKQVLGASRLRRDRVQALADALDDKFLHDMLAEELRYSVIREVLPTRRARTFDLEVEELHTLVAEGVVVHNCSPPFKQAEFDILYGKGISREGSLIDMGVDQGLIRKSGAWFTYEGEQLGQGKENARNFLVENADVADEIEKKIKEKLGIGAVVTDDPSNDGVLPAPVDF

BJ [5] = assay: BJ-TERT fibroblast viability loss – cell-based, RAS-independent, luminescence, dose response (AID 1933); format: functional; details: Homo sapiens
BJ [6] = assay: cells; format: functional, cell-based; details: Homo sapiens
BJ [7] = assay: BJ-TERT-LT-ST fibroblast viability loss – cell-based, RAS-independent, luminescence, dose response (AID 1935); format: functional; details: Homo sapiens;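 further: BJ fibroblasts immortalized with TERT plus LT and ST oncogenes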
[8] = DRD fibroblast viability loss – cell-based, non-viral oncogenic, luminescence, dose response (AID 1934); format: functional; details: Homo sapiens
[9] = molecular target: T3, Microphthalmia-associated transcription factor (Homo sapiens, UniProt O75030); assay: reducers of TRPM1 reporter luminescence, concentration series – cell-based, SK-MEL-5, cherry-picked, set 3, MITF inhibitor project, dose response (AID 493073); format: functional;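 further: SK-MEL-5 melanoma cells with luciferase driven by the MITF target TRPM1 promoter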
T3 sequence (O75030 whole entry): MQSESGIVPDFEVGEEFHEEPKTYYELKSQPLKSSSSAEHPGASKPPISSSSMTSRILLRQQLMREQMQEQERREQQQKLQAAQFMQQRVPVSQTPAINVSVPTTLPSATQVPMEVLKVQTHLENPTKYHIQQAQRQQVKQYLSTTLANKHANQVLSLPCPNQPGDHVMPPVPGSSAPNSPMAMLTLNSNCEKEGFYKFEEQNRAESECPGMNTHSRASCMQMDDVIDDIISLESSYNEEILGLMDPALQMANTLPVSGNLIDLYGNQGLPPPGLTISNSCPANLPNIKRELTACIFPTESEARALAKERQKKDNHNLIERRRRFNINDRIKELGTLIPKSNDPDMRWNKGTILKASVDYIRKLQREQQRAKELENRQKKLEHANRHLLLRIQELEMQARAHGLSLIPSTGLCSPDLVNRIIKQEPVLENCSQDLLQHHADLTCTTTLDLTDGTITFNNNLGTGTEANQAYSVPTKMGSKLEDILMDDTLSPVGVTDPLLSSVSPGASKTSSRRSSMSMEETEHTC

A-375 = assay: MITF: Counter assay: A375 proliferation Measured in Cell-Based System Using Plate Reader - 2084-03_Inhibitor_Dose_DryPowder_Activity. [Related pubchem assays (depositor defined):AID488944]; format: functional; details: Homo sapiens
[10] = decrease of insulin promoter-GFP reporter – imaging, high-content screening, mouse beta cells (AID 1628); format: functional; details: MIN6
[11] = MIN6 cell viability loss – mouse insulinoma, cytotoxicity control, dose response (AID 2122); format: functional;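 further: confirmatory high-throughput counterscreen run to flag cytotoxic compounds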
[12] = molecular target: T4, High affinity choline transporter 1 (Homo sapiens, UniProt Q9GZV3); assay: human choline transporter blockers, potency – cell-based, 5-point CRC, membrane potential dye, dose response (AID 504840); format: functional
T4 sequence (Q9GZV3 whole entry): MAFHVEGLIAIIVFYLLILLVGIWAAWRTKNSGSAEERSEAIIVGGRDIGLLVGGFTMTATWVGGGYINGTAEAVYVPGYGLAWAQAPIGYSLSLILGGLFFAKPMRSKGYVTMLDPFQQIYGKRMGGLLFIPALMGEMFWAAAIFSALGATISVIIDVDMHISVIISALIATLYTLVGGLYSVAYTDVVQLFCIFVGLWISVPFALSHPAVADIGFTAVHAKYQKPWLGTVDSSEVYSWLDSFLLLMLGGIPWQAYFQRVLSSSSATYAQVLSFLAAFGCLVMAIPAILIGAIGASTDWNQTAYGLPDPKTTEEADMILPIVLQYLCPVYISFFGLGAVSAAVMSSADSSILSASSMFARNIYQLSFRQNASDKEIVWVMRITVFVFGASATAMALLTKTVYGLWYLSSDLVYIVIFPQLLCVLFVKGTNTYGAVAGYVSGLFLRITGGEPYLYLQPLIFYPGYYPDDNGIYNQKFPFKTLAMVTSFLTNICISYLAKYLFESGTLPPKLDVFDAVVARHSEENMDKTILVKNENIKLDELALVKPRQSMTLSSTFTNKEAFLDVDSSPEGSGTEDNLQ

[13] = molecular target: T5, Heat shock factor protein 1 (Mus musculus, UniProt P38532); assay: enhancement of HSF1-driven luciferase signal – cell-based, NIH3T3, luminescence, dose retest, confirmation (AID 435004); format: functional;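 further: stress induced by proteasome inhibitor MG132 added 30 min after compound; luciferase reporter driven by HSF1 response element in NIH3T3 cells; actives raise luminescence as potentiators of the MG132 stress response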
T5 sequence (P38532 whole entry): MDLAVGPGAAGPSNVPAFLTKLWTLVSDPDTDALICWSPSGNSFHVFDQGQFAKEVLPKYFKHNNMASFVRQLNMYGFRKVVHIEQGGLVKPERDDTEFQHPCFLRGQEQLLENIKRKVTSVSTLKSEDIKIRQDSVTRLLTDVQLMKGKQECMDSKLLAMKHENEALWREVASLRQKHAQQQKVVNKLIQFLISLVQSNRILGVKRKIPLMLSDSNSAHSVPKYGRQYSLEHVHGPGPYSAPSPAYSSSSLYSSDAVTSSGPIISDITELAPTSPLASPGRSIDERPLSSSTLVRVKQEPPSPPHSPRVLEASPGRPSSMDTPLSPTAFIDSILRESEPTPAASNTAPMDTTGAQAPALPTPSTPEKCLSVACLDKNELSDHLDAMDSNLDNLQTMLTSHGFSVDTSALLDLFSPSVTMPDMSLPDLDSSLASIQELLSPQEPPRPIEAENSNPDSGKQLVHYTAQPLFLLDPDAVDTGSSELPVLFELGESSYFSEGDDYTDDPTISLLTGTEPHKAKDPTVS

[14] = molecular target: T6, Corticotropin-releasing factor receptor 2/Corticotropin-releasing factor-binding protein (Homo sapiens, UniProt P24387+Q13324); assay: Dose Response confirmation of uHTS hits for small molecule antagonists of the CRF-binding protein and CRF-R2 receptor complex.; format: functional; details: read-out: IC50_Mean
T6 sequence (Q13324 whole entry): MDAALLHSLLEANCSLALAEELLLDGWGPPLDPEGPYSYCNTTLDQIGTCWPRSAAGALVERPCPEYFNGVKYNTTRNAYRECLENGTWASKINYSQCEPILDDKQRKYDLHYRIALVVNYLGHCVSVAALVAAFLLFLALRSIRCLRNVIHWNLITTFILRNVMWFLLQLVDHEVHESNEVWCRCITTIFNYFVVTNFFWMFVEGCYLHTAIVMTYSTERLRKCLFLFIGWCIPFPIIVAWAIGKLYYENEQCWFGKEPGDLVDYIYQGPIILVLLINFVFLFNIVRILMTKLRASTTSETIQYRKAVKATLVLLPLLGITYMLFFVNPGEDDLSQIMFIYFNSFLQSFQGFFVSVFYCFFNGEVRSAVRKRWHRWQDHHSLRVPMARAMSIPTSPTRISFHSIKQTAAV
T6 sequence (P24387 whole entry): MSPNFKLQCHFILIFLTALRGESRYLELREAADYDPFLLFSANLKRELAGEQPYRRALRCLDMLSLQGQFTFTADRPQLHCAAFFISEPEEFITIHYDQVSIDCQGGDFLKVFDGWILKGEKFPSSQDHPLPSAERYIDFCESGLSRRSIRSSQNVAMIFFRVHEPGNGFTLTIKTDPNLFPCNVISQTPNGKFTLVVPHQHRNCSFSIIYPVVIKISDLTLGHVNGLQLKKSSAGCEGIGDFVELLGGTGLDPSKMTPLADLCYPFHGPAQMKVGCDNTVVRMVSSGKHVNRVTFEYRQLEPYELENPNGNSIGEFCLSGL

[15] = molecular target: T6, Corticotropin-releasing factor receptor 2/Corticotropin-releasing factor-binding protein; assay: activators of CRF receptor 2 with binding protein – uHTS hits, confirmation (AID 602473); format: functional; details: read-out: EC50_Mean

Peroxisome proliferator-activated receptor gamma/Nuclear receptor coactivator 3, sequence (P37231 whole entry): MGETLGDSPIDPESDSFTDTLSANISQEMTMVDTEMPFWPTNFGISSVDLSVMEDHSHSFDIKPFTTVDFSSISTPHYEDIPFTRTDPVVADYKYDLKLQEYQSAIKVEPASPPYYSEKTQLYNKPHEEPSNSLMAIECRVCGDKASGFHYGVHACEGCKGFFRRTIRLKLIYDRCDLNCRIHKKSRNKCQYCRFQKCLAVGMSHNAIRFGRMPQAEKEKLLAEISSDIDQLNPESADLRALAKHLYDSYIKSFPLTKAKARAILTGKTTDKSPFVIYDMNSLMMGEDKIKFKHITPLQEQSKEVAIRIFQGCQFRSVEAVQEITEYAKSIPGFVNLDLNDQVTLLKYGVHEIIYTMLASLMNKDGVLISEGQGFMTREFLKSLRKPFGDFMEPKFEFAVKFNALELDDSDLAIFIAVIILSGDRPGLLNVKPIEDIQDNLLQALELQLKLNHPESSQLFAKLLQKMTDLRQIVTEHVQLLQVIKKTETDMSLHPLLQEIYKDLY
Peroxisome proliferator-activated receptor gamma/Nuclear receptor coactivator 3, sequence (Q9Y6Q9 whole entry, further chain): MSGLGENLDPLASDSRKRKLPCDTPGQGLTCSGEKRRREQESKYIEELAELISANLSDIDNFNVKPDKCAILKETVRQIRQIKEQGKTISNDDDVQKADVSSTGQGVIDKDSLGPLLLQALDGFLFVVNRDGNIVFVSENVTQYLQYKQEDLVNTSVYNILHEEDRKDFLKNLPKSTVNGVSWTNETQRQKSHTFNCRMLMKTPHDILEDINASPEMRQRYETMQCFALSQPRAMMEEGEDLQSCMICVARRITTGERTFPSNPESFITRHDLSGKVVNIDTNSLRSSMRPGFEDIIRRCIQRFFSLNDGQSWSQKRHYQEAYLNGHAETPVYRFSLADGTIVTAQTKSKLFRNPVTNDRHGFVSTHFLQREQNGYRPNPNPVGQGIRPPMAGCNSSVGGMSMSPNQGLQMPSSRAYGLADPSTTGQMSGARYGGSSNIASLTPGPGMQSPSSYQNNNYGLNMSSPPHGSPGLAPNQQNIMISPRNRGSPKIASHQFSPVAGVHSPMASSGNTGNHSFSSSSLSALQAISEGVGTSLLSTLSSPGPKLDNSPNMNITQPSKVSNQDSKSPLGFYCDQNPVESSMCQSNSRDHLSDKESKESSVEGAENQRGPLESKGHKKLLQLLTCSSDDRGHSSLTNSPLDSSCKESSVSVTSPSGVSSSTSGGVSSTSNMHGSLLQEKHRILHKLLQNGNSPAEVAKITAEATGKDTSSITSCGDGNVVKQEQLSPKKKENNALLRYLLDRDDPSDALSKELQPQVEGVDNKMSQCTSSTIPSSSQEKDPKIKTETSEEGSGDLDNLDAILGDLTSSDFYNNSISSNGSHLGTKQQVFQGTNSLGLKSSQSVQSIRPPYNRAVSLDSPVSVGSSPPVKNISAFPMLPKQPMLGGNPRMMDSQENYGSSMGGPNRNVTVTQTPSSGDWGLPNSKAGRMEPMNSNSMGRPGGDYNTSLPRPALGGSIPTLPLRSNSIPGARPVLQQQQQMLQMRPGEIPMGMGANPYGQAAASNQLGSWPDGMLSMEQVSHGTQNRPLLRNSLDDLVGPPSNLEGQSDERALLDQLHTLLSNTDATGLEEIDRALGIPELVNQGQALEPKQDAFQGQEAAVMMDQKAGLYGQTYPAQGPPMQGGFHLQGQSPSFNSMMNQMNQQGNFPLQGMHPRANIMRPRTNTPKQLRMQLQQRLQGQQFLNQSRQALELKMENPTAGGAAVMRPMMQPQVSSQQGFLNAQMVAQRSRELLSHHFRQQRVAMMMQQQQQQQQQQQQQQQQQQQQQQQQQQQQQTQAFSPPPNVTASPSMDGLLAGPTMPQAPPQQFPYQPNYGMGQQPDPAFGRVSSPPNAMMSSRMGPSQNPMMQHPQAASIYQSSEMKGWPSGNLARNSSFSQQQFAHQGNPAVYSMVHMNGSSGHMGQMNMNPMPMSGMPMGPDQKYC
Peroxisome proliferator-activated receptor gamma/Nuclear receptor coactivator 2, sequence (P37231 whole entry): as the sequence (P37231 whole entry) above
Peroxisome proliferator-activated receptor gamma/Nuclear receptor coactivator 2, sequence (Q15596 whole entry, further chain): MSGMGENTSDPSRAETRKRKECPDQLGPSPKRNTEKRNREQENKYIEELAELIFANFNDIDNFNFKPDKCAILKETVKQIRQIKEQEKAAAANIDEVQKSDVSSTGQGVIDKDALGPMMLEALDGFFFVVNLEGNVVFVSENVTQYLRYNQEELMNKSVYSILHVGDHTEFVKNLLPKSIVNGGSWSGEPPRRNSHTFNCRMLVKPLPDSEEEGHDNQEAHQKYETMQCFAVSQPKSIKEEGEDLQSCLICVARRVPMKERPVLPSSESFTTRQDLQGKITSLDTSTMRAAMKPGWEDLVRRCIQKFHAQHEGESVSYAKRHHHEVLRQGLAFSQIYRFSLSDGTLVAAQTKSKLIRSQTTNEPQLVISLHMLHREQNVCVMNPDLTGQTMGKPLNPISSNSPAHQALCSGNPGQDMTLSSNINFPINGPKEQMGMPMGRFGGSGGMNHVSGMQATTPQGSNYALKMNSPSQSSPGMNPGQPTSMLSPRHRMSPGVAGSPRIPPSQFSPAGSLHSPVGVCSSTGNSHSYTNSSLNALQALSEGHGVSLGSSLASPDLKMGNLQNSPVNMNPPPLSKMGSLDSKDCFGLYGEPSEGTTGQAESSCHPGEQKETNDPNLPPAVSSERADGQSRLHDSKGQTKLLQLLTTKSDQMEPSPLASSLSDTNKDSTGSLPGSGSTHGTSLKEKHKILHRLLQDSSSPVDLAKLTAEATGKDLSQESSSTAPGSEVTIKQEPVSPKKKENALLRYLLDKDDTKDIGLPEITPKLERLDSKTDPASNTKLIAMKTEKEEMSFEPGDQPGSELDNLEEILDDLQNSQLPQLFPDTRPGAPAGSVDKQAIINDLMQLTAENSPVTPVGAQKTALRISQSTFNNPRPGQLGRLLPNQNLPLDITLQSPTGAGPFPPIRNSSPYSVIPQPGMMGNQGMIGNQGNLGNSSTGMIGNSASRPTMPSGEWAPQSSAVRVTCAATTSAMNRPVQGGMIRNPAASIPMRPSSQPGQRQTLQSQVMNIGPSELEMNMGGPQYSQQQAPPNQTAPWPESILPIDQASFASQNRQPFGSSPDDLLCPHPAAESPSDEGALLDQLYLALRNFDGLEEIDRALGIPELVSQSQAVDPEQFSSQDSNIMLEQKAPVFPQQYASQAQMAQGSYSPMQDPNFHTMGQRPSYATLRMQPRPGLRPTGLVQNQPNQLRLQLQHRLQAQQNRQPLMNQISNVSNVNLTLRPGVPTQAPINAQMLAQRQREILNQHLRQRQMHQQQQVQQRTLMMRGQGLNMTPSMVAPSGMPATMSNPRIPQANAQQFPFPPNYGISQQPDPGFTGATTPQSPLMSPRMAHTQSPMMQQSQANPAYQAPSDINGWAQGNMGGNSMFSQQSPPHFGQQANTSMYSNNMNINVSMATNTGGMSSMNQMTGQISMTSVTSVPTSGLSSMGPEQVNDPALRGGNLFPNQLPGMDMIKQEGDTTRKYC

O=C(CSc1c2c(nc3cc(Cl)ccc13)CCCC2)NCc1ccco1
EC50 [1]: > 79.4 µM (inactive)
EC50 [2]: > 79.4 µM (not active)
EC50 [3]: > 79.4 µM (not active)
AC50 [4]: 27.9 µM (active)
EC50 (Protein RecA): 7.14 µM (active)

COc1ccc(N(Cc2cc(O)nc3ccccc23)C(=O)CCl)cc1
EC50 (BJ [5]): 1.95 µM (active)
EC50 (BJ [6]): 5.45 µM (inconclusive)
EC50 (BJ [7]): 4.68 µM (active)
EC50 [8]: 4.96 µM (inconclusive)
AC50 [9]: 10.9 µM (active)
AC50 [4]: 10.3 µM (active)
EC50 (Protein RecA): 1.59 µM (active)
AC50 (A-375): 27.1 µM (active)

CC1(C)CC2CC(C)(CN2c2ncnc3ccccc23)C1 (configuration not stated)
IC50 [10]: 1.7 µM (active)
IC50 [11]: 1.16 µM (active)
IC50 [12]: 6.74 µM (active)

CC(=O)C1=C(O)C(=O)N(c2nccs2)C1c1ccccc1 (configuration not stated)
EC50 [1]: 86.4 µM (inactive)
EC50 [2]: > 79.4 µM (not active)
EC50 [3]: 35.4 µM (not active)
EC50 [13]: > 260 µM (inactive)
IC50 [14]: > 47.1 µM (inactive)
EC50 [15]: > 53 µM (inactive)
